Results published in patent EP2012792B1, “USE OF A COMPOUND INDUCING AN INCREASE OF FREE SEROTONIN RATE IN THE BODY, FOR PREPARING A MEDICINE FOR TREATING SKELETAL MUSCLE DEGENERATION OF GENETIC ORIGIN” (Association Française contre les Myopathies, priority 2006, dated 2007).
Structures can show the parent of a compound that is named as a salt.

Assays:
[1] = test system: souche de nématode dépourvue de dystrophine; assay: Muscle degeneration and paralysis test in dystrophin-deficient nematode strain (degenerative myopathy model); format: in vivo, Caenorhabditis elegans; details: 7 days of culture at 15°C; for Diminution de la dégénérescence en %: untreated = 0; for Pourcentage d'animaux paralysés à J7: untreated = 100
Protocol: Les composés ont été testés sur une souche de nématode dépourvue de dystrophine (Gieseler et al., Current Biology, 2000, vol. 10, p1092-1097) et (Ségalat, Neuromuscular Disorders, 2002, Suppl: S105-9). Cette souche est utilisée comme modèle de myopathie dégénérative. Dans cette souche, jusqu'à 30% des cellules musculaires servant à la locomotion (muscles longitudinaux) dégénèrent à l'état adulte (7 jours à 15°C), ce qui se traduit par une paralysie progressive des animaux.
Les composés sont administrés par mélange avec la gélose sur laquelle sont cultivés les animaux. Ils pénètrent par diffusion à travers la cuticule des animaux.
L'effet des composés sur la dégénérescence musculaire est évalué par 1) l'observation du phénotype des animaux (paralysie), et 2) par l'examen cytologique de la dégénérescence musculaire au moyen de marqueurs musculaires : rodamine-phalloidine et anticorps anti-myosine. Cet examen permet de compter le nombre de cellules musculaires en dégénérescence ou mortes (Gieseler et al., 2000, supra).

[2] = test system: souris mdx (génotype C57/BL6 mdx5cv); assay: mdx mouse: number of centronucleated fibres (test of Shavlakadze et al.); format: in vivo; details: p<0,1%
Protocol: (§1) J. Pathol. […] 2002 Aug; 444(5), 634-43. […] 2000 Sep; 11(9), 725-8.
(§2) Elles sont testées à 6 semaines.
(§3) Il a également été démontré que la Fluoxetine chlorhydrate (11 mg/kg/jour), réduit le nombre de fibres centronucléées de 20% environ (p<0,1%).

[3] = test system: souris mdx (génotype C57/BL6 mdx5cv); assay: mdx mouse: histology, fibre size dispersion; format: in vivo; details: 40mg/jour/kg oral in food, treated from 2 to 6 weeks of age, tested at 6 weeks; versus untreated animals
Text: as §1, §2

[4] = test system: protéolyse du muscle de C. elegans; assay: Muscle proteolysis model of C. elegans representative of cachexia (protocol of Zdinak et al.); format: in vivo; details: relative to control; concentration not given
Text: c) Concernant l'action sur la cachexie, il a également pu être montré sur un modèle de protéolyse du muscle de C. elegans representatif de la cachexie, et en utilisant le protocole décrit par Zdinak et al., dans Transgene-coded chimeric proteins as reporters of intracellular proteolysis: starvation-induced catabolism of a lacZ fusion protein in muscle cells of Caenorhabditis elegans, J Cell Biochem. 1997 Oct 1;67(1):143-53 que la sérotonine et l'imipramine chlorhydrate réduisent fortement cette protéolyse (20% de la protéolyse du témoin dans les 2 cas).

[5] = test system: souris mdx (génotype C57/BL6 mdx5cv); details: 40mg/jour/kg oral in food, treated from 2 to 6 weeks of age
Text: Les tests effectués chez la souris sont de plusieurs types : histologiques, fonctionnels sur l'animal entier, et fonctionnels sur muscles disséqués. Les tests sont effectués sur la souris mdx (génotype C57/BL6 mdx5cv), modèle murin de myopathie dégénérative. Ces tests sont notamment détaillés dans les publications suivantes auxquelles on pourra se référer : • De Luca A, et al. Am. J. Pathol. 2005 Feb; 166(2), 477-89. • Divet A, et al. Pflugers Arch. 2002 Aug; 444(5), 634-43. Epub 2002 Jul 10. • Rafael JA, et al. Mamm Genome. 2000 Sep; 11(9), 725-8.
Les composés sont administrés oralement aux souris dans leur nourriture. Les souris sont traitées de l'âge de 2 semaines à 6 semaines. Elles sont testées à 6 semaines.

[6] = test system: souris mdx (génotype C57/BL6 mdx5cv); assay: mdx mouse: diaphragm necrosis (test of Raymackers et al.); format: in vivo; details: 15 mg/kg/jour oral in food; p<5%
Protocol: as §1, §2, §3

[7] = 0,1 mg/ml (0,3 mM) in culture agar
[8] = 0,05 mg/ml (0,15 mM) in culture agar
[9] = 4 mg/ml (10 mM) in culture agar
[10] = 0,1 mg/ml (0,2 mM) in culture agar

CN(C)CCC=C1c2ccccc2CCc2ccccc21 [Amytriptyline chlorhydrate, amitriptyline]
Diminution de la dégénérescence en % [1, 7]: 61%
Pourcentage d'animaux paralysés à J7 [1, 7]: 52%

CNCCCN1c2ccccc2CCc2ccccc21 [Desipramine chlorhydrate, désipramine]
Diminution de la dégénérescence en % [1, 7]: 58%
Pourcentage d'animaux paralysés à J7 [1, 7]: 58%

CNCCC(Oc1ccc(C(F)(F)F)cc1)c1ccccc1 (stereo not shown) [Fluoxetine chlorhydrate, fluoxétine]
Diminution de la dégénérescence en % [1, 8]: 51%
Pourcentage d'animaux paralysés à J7 [1, 8]: 60%
réduction du nombre de fibres centronucléées ([2]; 11 mg/kg/jour oral in food): ~20%

CN(C)CCCN1c2ccccc2CCc2ccccc21 [Imipramine chlorhydrate, imipramine]
Diminution de la dégénérescence en % [1, 7]: 37%
Pourcentage d'animaux paralysés à J7 [1, 7]: 65%
Réduction de la dispersion de taille des fibres (marqueur de dégénérescence) [3]: 26%
protéolyse [4]: 20 % de la protéolyse du témoin
Augmentation de la tension développée par le muscle EDL sur animaux vivants ([5]; tested at 6 weeks): 20%
Augmentation du score avec le test d'agrippement ([5]; tested at 6 weeks): 48%
Augmentation de la tension maximale développée par le muscle isolé ([5]; triton-skinned fibres): 50%

NCCc1c[nH]c2ccc(O)cc12 [Sérotonine, 5-hydrotryptamine]
Diminution de la dégénérescence en % [1, 9]: 73%
Pourcentage d'animaux paralysés à J7 [1, 9]: 41%
dégénérescence musculaire ([1]; result in words): diminue également la dégénérescence musculaire
protéolyse [4]: 20 % de la protéolyse du témoin

CC(CN(C)C)CN1c2ccccc2CCc2ccccc21 (stereo not shown) [Trimipramine maleate, trimipramine]
Diminution de la dégénérescence en % [1, 10]: 53%
Pourcentage d'animaux paralysés à J7 [1, 10]: 60%
nécrose du diaphragme [6]: réduit la nécrose du diaphragme
nombre de fibres centronucléées ([2]; 15 mg/kg/jour oral in food, result in words): réduit
